{"source": "patent US4326054A", "about": "“Cleomycins and process for producing same” (Zaidan Hojin Biseibutsu Kagaku Kenkyu Kai, priority 1979, dated 1982)"}
{"test_system": "Mycobacterium smegmatis ATCC 607", "experiment": "Antimicrobial activity, agar plate-cylinder method, bleomycin A2 as standard (1,000 u/mg)", "format": "cell-based", "conditions": "Table 5; copper-free form; relative to bleomycin A2 = 1,000 u/mg", "method": "Typical examples of the biological activities measured on cleomycins (copper-free form) are illustrated below.\nComparison was made with the relevant antibiotics bleomycins. The relative antimicrobial potency (u/mg) against Mycobacterium smegmatis ATCC 607 was measured by agar plate-cylinder method using bleomycin A2 as a standard (1,000 u/mg).\n(Note: The antimicrobial potency was determined by taking bleomycin\nA2 as 1,000 μ/mg and using Mycobacterium smegmatis ATCC 607 as a\ntest bacterium. Herinafter, the same was applied.)"}
{"compound": "Cc1c(N)nc(C(CC(N)=O)NCC(N)C(N)=O)nc1C(=O)NC(C(=O)NC(C)C(O)C(C)C(=O)NC(C(=O)NCCc1nc(-c2nc(C(=O)NCCN)cs2)cs1)C1(O)CC1)C(OC1OC(CO)C(O)C(O)C1OC1OC(CO)C(O)C(OC(N)=O)C1O)c1cnc[nH]1", "note": "(stereo not shown) [Compound No. 3, 2-aminoethylaminocleomycin]", "Antimicrobiral potency": "2,760 u/mg"}
{"compound": "Cc1c(N)nc(C(CC(N)=O)NCC(N)C(N)=O)nc1C(=O)NC(C(=O)NC(C)C(O)C(C)C(=O)NC(C(=O)NCCc1nc(-c2nc(C(=O)NCCCN)cs2)cs1)C1(O)CC1)C(OC1OC(CO)C(O)C(O)C1OC1OC(CO)C(O)C(OC(N)=O)C1O)c1cnc[nH]1", "note": "(stereo not shown) [compound 4, 3-aminopropylaminocleomycin]", "Antimicrobiral potency": "2,150 u/mg"}
{"compound": "Cc1c(N)nc(C(CC(N)=O)NCC(N)C(N)=O)nc1C(=O)NC(C(=O)NC(C)C(O)C(C)C(=O)NC(C(=O)NCCc1nc(-c2nc(C(=O)NCCCCN)cs2)cs1)C1(O)CC1)C(OC1OC(CO)C(O)C(O)C1OC1OC(CO)C(O)C(OC(N)=O)C1O)c1cnc[nH]1", "note": "(stereo not shown) [compound 5, 4-aminobutylaminocleomycin]", "Antimicrobiral potency": "1,935 u/mg"}
{"compound": "Cc1c(N)nc(C(CC(N)=O)NCC(N)C(N)=O)nc1C(=O)NC(C(=O)NC(C)C(O)C(C)C(=O)NC(C(=O)NCCc1nc(-c2nc(C(=O)NCCCNCCCCN)cs2)cs1)C1(O)CC1)C(OC1OC(CO)C(O)C(O)C1OC1OC(CO)C(O)C(OC(N)=O)C1O)c1cnc[nH]1", "note": "(stereo not shown) [compound 6, 3-(4-aminobutylamino)propylaminocleomycin]", "Antimicrobiral potency": "3,575 u/mg"}
{"compound": "Cc1c(N)nc(C(CC(N)=O)NCC(N)C(N)=O)nc1C(=O)NC(C(=O)NC(C)C(O)C(C)C(=O)NC(C(=O)NCCc1nc(-c2nc(C(=O)NCCNCC(C)O)cs2)cs1)C1(O)CC1)C(OC1OC(CO)C(O)C(O)C1OC1OC(CO)C(O)C(OC(N)=O)C1O)c1cnc[nH]1", "note": "(stereo not shown) [compound 12, 2-(2-hydroxypropylamino)ethylaminocleomycin]", "Antimicrobiral potency": "2,280 u/mg"}
{"compound": "Cc1c(N)nc(C(CC(N)=O)NCC(N)C(N)=O)nc1C(=O)NC(C(=O)NC(C)C(O)C(C)C(=O)NC(C(=O)NCCc1nc(-c2nc(C(=O)NCCCN3CCNCC3)cs2)cs1)C1(O)CC1)C(OC1OC(CO)C(O)C(O)C1OC1OC(CO)C(O)C(OC(N)=O)C1O)c1cnc[nH]1", "note": "(stereo not shown) [compound 13, 3-(1-piperazinyl)propylaminocleomycin]", "Antimicrobiral potency": "980 u/mg"}
{"compound": "Cc1c(N)nc(C(CC(N)=O)NCC(N)C(N)=O)nc1C(=O)NC(C(=O)NC(C)C(O)C(C)C(=O)NC(C(=O)NCCc1nc(-c2nc(C(=O)NCCCNCCCNC(C)c3ccccc3)cs2)cs1)C1(O)CC1)C(OC1OC(CO)C(O)C(O)C1OC1OC(CO)C(O)C(OC(N)=O)C1O)c1cnc[nH]1", "note": "(stereo not shown) [compound 14, 3-[3-(1-phenylethylamino)propylamino]propylaminocleomycin]", "Antimicrobiral potency": "11,420 u/mg"}
{"compound": "Cc1c(N)nc(C(CC(N)=O)NCC(N)C(N)=O)nc1C(=O)NC(C(=O)NC(C)C(O)C(C)C(=O)NC(C(=O)NCCc1nc(-c2nc(C(=O)NCCC[N+](C)(C)C)cs2)cs1)C1(O)CC1)C(OC1OC(CO)C(O)C(O)C1OC1OC(CO)C(O)C(OC(N)=O)C1O)c1cnc[nH]1", "note": "(stereo not shown) [compound 18, 3-(N,N,N-trimethylamino)propylaminocleomycin]", "Antimicrobiral potency": "878 u/mg"}
{"compound": "Cc1c(N)nc(C(CC(N)=O)NCC(N)C(N)=O)nc1C(=O)NC(C(=O)NC(C)C(O)C(C)C(=O)NC(C(=O)NCCc1nc(-c2nc(C(=O)NCCCNCCCN(C)C)cs2)cs1)C1(O)CC1)C(OC1OC(CO)C(O)C(O)C1OC1OC(CO)C(O)C(OC(N)=O)C1O)c1cnc[nH]1", "note": "(stereo not shown) [compound 19, 3-[3-(N,N-dimethylamino)propyl]propylaminocleomycin]", "Antimicrobiral potency": "2,004 u/mg"}
{"compound": "Cc1c(N)nc(C(CC(N)=O)NCC(N)C(N)=O)nc1C(=O)NC(C(=O)NC(C)C(O)C(C)C(=O)NC(C(=O)NCCc1nc(-c2nc(C(=O)NCCCNC(C)CCN)cs2)cs1)C1(O)CC1)C(OC1OC(CO)C(O)C(O)C1OC1OC(CO)C(O)C(OC(N)=O)C1O)c1cnc[nH]1", "note": "(stereo not shown) [compound 21, 3-(3-amino-1-methylpropylamino)propylaminocleomycin]", "Antimicrobiral potency": "2,620 u/mg"}
